From patent publication US5700780A, “Antiviral peptide derivatives having a 2-oxoalkyl amino acid side chain” (Boehringer Ingelheim (Canada), Ltd., priority 1989, dated 1997)
Where a SMILES comes first, the peptide text is derived from it.

These compounds were tested against HSV-1 ribonucleotide reductase (Human herpesvirus 1, UniProt P08543) (assay: biochemical).
HSV-1 ribonucleotide reductase, sequence (P08543 whole entry): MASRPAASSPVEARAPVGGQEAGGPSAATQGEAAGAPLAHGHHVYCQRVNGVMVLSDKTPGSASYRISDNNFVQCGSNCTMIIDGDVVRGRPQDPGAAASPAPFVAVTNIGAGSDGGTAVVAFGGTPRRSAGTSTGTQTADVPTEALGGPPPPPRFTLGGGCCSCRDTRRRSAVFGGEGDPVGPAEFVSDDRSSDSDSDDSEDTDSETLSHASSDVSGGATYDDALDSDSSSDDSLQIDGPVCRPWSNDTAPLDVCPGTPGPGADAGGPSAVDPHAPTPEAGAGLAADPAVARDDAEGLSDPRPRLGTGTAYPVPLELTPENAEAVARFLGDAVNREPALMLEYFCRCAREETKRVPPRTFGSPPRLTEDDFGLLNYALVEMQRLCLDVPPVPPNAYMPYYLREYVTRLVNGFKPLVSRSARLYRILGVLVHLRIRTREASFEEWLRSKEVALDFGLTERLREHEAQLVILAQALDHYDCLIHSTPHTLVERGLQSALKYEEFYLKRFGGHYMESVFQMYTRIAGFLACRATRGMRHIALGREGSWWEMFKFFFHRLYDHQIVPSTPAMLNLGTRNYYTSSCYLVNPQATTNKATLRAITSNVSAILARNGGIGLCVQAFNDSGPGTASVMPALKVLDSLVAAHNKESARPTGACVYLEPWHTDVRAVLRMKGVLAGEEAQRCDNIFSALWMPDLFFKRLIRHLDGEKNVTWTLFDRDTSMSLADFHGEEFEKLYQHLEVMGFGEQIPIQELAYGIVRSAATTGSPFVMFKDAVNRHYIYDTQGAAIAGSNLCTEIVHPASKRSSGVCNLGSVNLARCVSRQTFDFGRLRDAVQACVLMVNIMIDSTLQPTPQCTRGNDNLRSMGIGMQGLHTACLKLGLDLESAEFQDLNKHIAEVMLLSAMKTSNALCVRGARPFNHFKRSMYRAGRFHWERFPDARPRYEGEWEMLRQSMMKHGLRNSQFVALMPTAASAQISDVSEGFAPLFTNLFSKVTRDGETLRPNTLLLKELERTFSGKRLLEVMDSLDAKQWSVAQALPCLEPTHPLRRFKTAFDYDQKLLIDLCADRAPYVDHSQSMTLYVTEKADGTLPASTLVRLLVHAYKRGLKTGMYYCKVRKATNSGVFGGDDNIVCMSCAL
Excerpt: Inhibition of Herpes Simplex Virus (HSV, type 1) Ribonucleotide Reductase
HSV-1 ribonucleotide reductase (partially purified) was obtained from quiescent BHK-21/C13 cells infected with strain F HSV-1 virus at 10 plaque forming units/cell as described by E. A. Cohen et al., J. Gen. Virol., 66, 733 (1985).
The procedure described by P. Gaudreau et al., J. Biol, Chem., 262, 12413 (1987), was employed. […] The number of units of the enzyme preparation used in each assay was constant, based on the specific activity of the enzyme preparation.
For `CCCCCCCCCCCC(=O)C[C@H](NC(=O)[C@@H](NC(=O)[C@H](C(C)C)N(C)C(=O)CCc1ccccc1)[C@@H](C)CC)C(=O)N[C@@H](CC(=O)O)C(=O)N[C@@H](CC(C)C)C(N)=O` [PhCH2 CH2 CO--N--Me--Val--Ile--NHCH(2-oxotridecyl)-CO--Asp--Leu--NH2] (HELM PEPTIDE1{[O=C(CCc1ccccc1)[*:2]].[meV].I.[CCCCCCCCCCCC(=O)C[C@H](N[*:1])C(=O)[*:2]].D.L.[am]}$$$$V2.0), the IC50 was 6.3 µM.
For `CCCCCCCC(=O)C[C@H](NC(=O)[C@@H](NC(=O)C(CC)CC)C(C)(C)C)C(=O)N[C@@H](CC(=O)O)C(=O)N[C@@H](CC(C)C)C(=O)O` [2-Ethylbutanoyl-Tbg--NHCH(2-oxononyl)-CO--Asp--Leu--OH], the IC50 was 4.5 µM.
For `CC[C@H](C)[C@H](NC(=O)[C@H](C(C)C)N(C)C(=O)CCc1ccccc1)C(=O)N[C@@H](CC(C)=O)C(=O)N[C@@H](CC(=O)O)C(=O)N[C@@H](CC(C)C)C(=O)O` [PhCH2 CH2 CO--N--Me--Val--Ile--NHCH(2-oxopropyl)-CO--Asp--Leu--OH] (HELM PEPTIDE1{[O=C(CCc1ccccc1)[*:2]].[meV].I.[CC(=O)C[C@H](N[*:1])C(=O)[*:2]].D.L}$$$$V2.0), the IC50 was 1.3 µM.
For `CCCCCCCCCCCC(=O)C[C@H](NC(=O)[C@@H](NC(=O)C(CC)CC)[C@@H](C)CC)C(=O)N[C@@H](CC(=O)O)C(=O)N[C@@H](CC(C)C)C(=O)O` [2-Ethylbutanoyl-Ile--NHCH(2-oxotridecyl)-CO--Asp--Leu--OH], the IC50 was 8.5 µM.
For `CCCCCCCC(=O)C[C@H](NC(=O)[C@@H](NC(=O)[C@H](C(C)C)N(C)C(=O)CCc1ccccc1)[C@@H](C)CC)C(=O)N[C@@H](CC(=O)O)C(=O)N[C@@H](CC(C)C)C(=O)O` [PhCH2 CH2 CO--N--Me--Val--Ile--NHCH(2-oxononyl)-CO--Asp--Leu--OH] (HELM PEPTIDE1{[O=C(CCc1ccccc1)[*:2]].[meV].I.[CCCCCCCC(=O)C[C@H](N[*:1])C(=O)[*:2]].D.L}$$$$V2.0), the IC50 was 0.42 µM.
With `CC[C@H](C)[C@H](NC(=O)[C@H](C(C)C)N(C)C(=O)CCc1ccccc1)C(=O)N[C@@H](CC(=O)C1CCCC1)C(=O)N[C@@H](CC(=O)O)C(=O)N[C@@H](CC(C)C)C(=O)O` [PhCH2 CH2 CO--N--Me--Val--Ile--NHCH(2-cyclopentyl-2-oxoethyl)-CO--Asp--Leu--OH] (HELM PEPTIDE1{[O=C(CCc1ccccc1)[*:2]].[meV].I.[O=C(C[C@H](N[*:1])C(=O)[*:2])C1CCCC1].D.L}$$$$V2.0) the IC50 was 0.18 µM.
`CCCCCCCC(=O)C[C@H](NC(=O)[C@@H](NC(=O)C(CC)CC)C(C)(C)C)C(=O)N[C@H](C(=O)N[C@@H](CC(C)C)C(=O)O)C(C)(C)C(=O)O` [2-Ethylbutanoyl-Tbg--NHCH(2-oxononyl)-CO--NHCH[C(CH3)2 COOH]--CO--Leu--OH] gave an IC50 of 1.2 µM.
`CCCCCC(=O)C[C@H](NC(=O)[C@@H](NC(=O)C(CC)CC)C(C)(C)C)C(=O)N[C@@H](CC(=O)O)C(=O)N[C@@H](CC(C)C)C(=O)O` [2-Ethylbutanoyl-Tbg--NHCH(2-oxoheptyl)-CO--Asp--Leu--OH] was tested, and the IC50 was 7.5 µM.
In the case of `CCC(CC)C(=O)N[C@H](C(=O)N[C@@H](CC(=O)C1CCCC1)C(=O)N[C@@H](CC(=O)O)C(=O)NCCC(C)(C)C)C(C)(C)C` [2-Ethylbutanoyl-Tbg--NHCH(2-cyclopentyl-2-oxoethyl)-CO--Asp--NHCH2 CH2 C(CH3)3], the IC50 is reported as 23 µM.
For `CCCCCCCC(=O)C[C@H](NC(=O)[C@@H](NC(=O)C(CC)CC)[C@@H](C)CC)C(=O)N[C@@H](CC(=O)O)C(=O)N[C@@H](CC(C)C)C(=O)O` [2-Ethylbutanoyl-Ile--NHCH(2-oxononyl)-CO--Asp--Leu--OH], the IC50 was 24 µM.
